Results as given in patent US11491120B2, “Pharmacological prophylactics against stress-induced affective disorders in females” (The Trustees of Columbia University in the City of New York, priority 2017, dated 2022).
Entries after “also recorded” stand apart in the source; their conditions may differ.

How the values were obtained:
[1] = tested on: female 129S6/SvEv mice; assay: Contextual fear conditioning (CFC), 3-shock, freezing in training and context re-exposure
[2] = tested on: female 129S6/SvEv mice; assay: Elevated plus maze (EPM); assay type: in vivo, mouse; details: 0.025 mg/kg, 1 week prophylactic drug, learned helplessness stress
Method: The EPM was administered as previously described (58), with the exception that videos were scored using ANY-maze behavioral tracking software (Stoelting Co., Wood Dale, Ill.).
We have previously shown that prophylactic (R,S)-ketamine attenuates helpless behavior in male mice (18). To validate these findings in females, female mice were administered saline, (R,S)-ketamine, or (2R,6R)-HNK one week prior to LH training (FIG. 4A). Two weeks later, mice were tested for escape latency and for depressive- and anxiety-like behaviors in the FST and elevated plus maze (EPM). CFC was again administered following these behavioral assays.

[3] = tested on: male mice; assay: Prophylactic efficacy in male mice (immobility in the forced swim test); assay type: in vivo, mouse
[4] = 0.025 mg/kg, 24 hours before CFC, female mice
[5] = Contextual Fear Conditioning Re-exposure, Dunnett test Sal vs. drug (0.025), 1 week prophylactic drug
[6] = Contextual Fear Conditioning Re-exposure, Dunnett test Sal vs. drug (0.075), 1 week prophylactic drug
[7] = Contextual Fear Conditioning Re-exposure, Dunnett test Sal vs. drug (0.1), 1 week prophylactic drug
[8] = Contextual Fear Conditioning Re-exposure, Dunnett test Sal vs. drug (0.3), 1 week prophylactic drug
[9] = Contextual Fear Conditioning Re-exposure, Dunnett test Sal vs. drug (2.5), 1 week prophylactic drug
[10] = Contextual Fear Conditioning Re-exposure, Dunnett test Sal vs. drug (10), 1 week prophylactic drug
[11] = Contextual Fear Conditioning Training, Dunnett test Sal vs. drug (0.025), 1 week prophylactic drug
[12] = Contextual Fear Conditioning Training, Dunnett test Sal vs. drug (0.075), 1 week prophylactic drug
[13] = Contextual Fear Conditioning Training, Dunnett test Sal vs. drug (0.1), 1 week prophylactic drug
[14] = Contextual Fear Conditioning Training, Dunnett test Sal vs. drug (0.3), 1 week prophylactic drug
[15] = Contextual Fear Conditioning Training, Dunnett test Sal vs. drug (2.5), 1 week prophylactic drug
[16] = Contextual Fear Conditioning Training, Dunnett test Sal vs. drug (10), 1 week prophylactic drug
[17] = Ovariectomized cohort, 1 week prophylactic drug, Contextual Fear Conditioning Re-exposure, FIG. 10B, Sham mice, K (10), (2R,6R)-HNK (0.025)
[18] = Ovariectomized cohort, 1 week prophylactic drug, Contextual Fear Conditioning Re-exposure, FIG. 10C, Sham mice, K (10), (2R,6R)-HNK (0.025)
[19] = Ovariectomized, E2/P4 replacement, 1 week prophylactic drug, Contextual Fear Conditioning Training, FIG. 10D, Vehicle vs E2/P4, same drug, K (10), (2R,6R)-HNK (0.025)
[20] = Sal vs. (2R,6R)-HNK (0.025), Fisher's PLSD, 1 week prophylactic drug, learned helplessness stress, Contextual Fear Conditioning Re-exposure
[21] = Sal vs. (2R,6R)-HNK (0.025), Fisher's PLSD, Stress, antidepressant drug/Contextual Fear Conditioning Training

N[C@@]1(c2ccccc2Cl)CCC[C@@H](O)C1=O [(2R,6R)-HNK, (2R,6R)-hydroxynorketamine] was tested, and the “p, Sal vs. drug, Dunnett test: Freezing (Average), Contextual Fear Conditioning Re-exposure” value (from here on “p, Sal vs. drug, Dunnett test: Freezing”) ([1]; 0.025 mg/kg, 1 week prophylactic drug) was 0.4341, the “Freezing / fear expression during re-exposure vs saline” value [1, 4] was “comparable levels of freezing” and the “Freezing / fear learning during CFC training vs saline” value [1, 4] was “comparable levels of freezing; also recorded: did not alter fear learning”. For the same compound, the “p, Sal vs. drug, Dunnett test: Freezing” value ([1]; 0.075 mg/kg, 1 week prophylactic drug) was 0.9955, the “p, Sal vs. drug, Dunnett test: Freezing” value ([1]; 0.1 mg/kg, 1 week prophylactic drug) was 0.9257 and the “p, Sal vs. drug, Dunnett test: Freezing” value ([1]; 0.3 mg/kg, 1 week prophylactic drug) was 0.9993. The “p, Sal vs. drug, Dunnett test: Freezing” value ([1]; 2.5 mg/kg, 1 week prophylactic drug) was 0.6274, the “Freezing during 3-shock CFC training vs saline” value ([1]; 10 mg/kg, 1 week before CFC, female mice) was “significantly lowered freezing” and the “p, Sal vs. drug, Dunnett test: Freezing” value ([1]; 10 mg/kg, 1 week prophylactic drug) was 0.9991. For the same compound, the “Freezing during context re-exposure vs saline” value ([1]; 3 days before CFC, female mice) was “do not affect freezing during re-exposure”, the “p, Freezing (min 1-5)” value [1, 5] was 0.4341 and the “p, Freezing (min 2)” value [1, 5] was 0.1669. For the same compound, the “p, Freezing (min 3)” value [1, 5] was 0.8139, the “p, Freezing (min 4)” value [1, 5] was 0.6797 and the “p, Freezing (min 5)” value [1, 5] was 0.7607. The “p, Freezing (min 1-5)” value [1, 6] was 0.9955, the “p, Freezing (min 2)” value [1, 6] was over 0.9999 and the “p, Freezing (min 3)” value [1, 6] was 0.9009. For the same compound, the “p, Freezing (min 4)” value [1, 6] was 0.9994, the “p, Freezing (min 5)” value [1, 6] was 0.9990 and the “p, Freezing (min 1-5)” value [1, 7] was 0.9257. The “p, Freezing (min 2)” value [1, 7] was 0.9990, the “p, Freezing (min 3)” value [1, 7] was 0.9333 and the “p, Freezing (min 4)” value [1, 7] was 0.9679. The “p, Freezing (min 5)” value [1, 7] was 0.8119, the “p, Freezing (min 1-5)” value [1, 8] was 0.9993 and the “p, Freezing (min 2)” value [1, 8] was 0.9998. The “p, Freezing (min 3)” value [1, 8] was 0.9954, the “p, Freezing (min 4)” value [1, 8] was 0.9994 and the “p, Freezing (min 5)” value [1, 8] was 0.9991. The “p, Freezing (min 1-5)” value [1, 9] was 0.6274, the “p, Freezing (min 2)” value [1, 9] was 0.2365 and the “p, Freezing (min 3)” value [1, 9] was 0.4707. For the same compound, the “p, Freezing (min 4)” value [1, 9] was 0.3440, the “p, Freezing (min 5)” value [1, 9] was 0.9997 and the “p, Freezing (min 1-5)” value [1, 10] was 0.9991. For the same compound, the “p, Freezing (min 2)” value [1, 10] was 0.9994, the “p, Freezing (min 3)” value [1, 10] was 0.9074 and the “p, Freezing (min 4)” value [1, 10] was 0.9994. For the same compound, the “p, Freezing (min 5)” value [1, 10] was 0.9003, the “p, Freezing (min 1-5)” value [1, 11] was 0.7272 and the “p, Freezing (min 4)” value [1, 11] was 0.9640. The “p, Freezing (min 5)” value [1, 11] was 0.9668, the “p, Freezing (min 1-5)” value [1, 12] was 0.9917 and the “p, Freezing (min 4)” value [1, 12] was 0.9911. The “p, Freezing (min 5)” value [1, 12] was 0.9993, the “p, Freezing (min 1-5)” value [1, 13] was 0.6657 and the “p, Freezing (min 4)” value [1, 13] was over 0.9999. The “p, Freezing (min 5)” value [1, 13] was 0.2588, the “p, Freezing (min 1-5)” value [1, 14] was 0.9992 and the “p, Freezing (min 4)” value [1, 14] was 0.9477. For the same compound, the “p, Freezing (min 5)” value [1, 14] was over 0.9999, the “p, Freezing (min 1-5)” value [1, 15] was 0.9993 and the “p, Freezing (min 4)” value [1, 15] was 0.9991. The “p, Freezing (min 5)” value [1, 15] was 0.9997, the “p, Freezing (min 1-5)” value [1, 16] was 0.1798 and the “p, Freezing (min 4)” value [1, 16] was 0.4387. The “p, Freezing (min 5)” value [1, 16] was 0.3423, the “p, Freezing (min 1-5), Fisher's PLSD, OVX Sal vs OVX drug” value ([1]; Ovariectomized cohort, 1 week prophylactic drug, Contextual Fear Conditioning Re-exposure, FIG. 10B, OVX mice, K (10), (2R,6R)-HNK (0.025)) was 0.2290 and the “* (significance), Freezing (min 1-5), Fisher's PLSD, Sham Sal vs Sham drug” value [1, 17] was “* (* p<0.05)”. The “p, Freezing (min 1-5), Fisher's PLSD, Sham Sal vs Sham drug” value [1, 17] was 0.0244, the “p, Freezing (min 1-5), Fisher's PLSD, Sham drug vs OVX drug” value ([1]; Ovariectomized cohort, 1 week prophylactic drug, Contextual Fear Conditioning Re-exposure, FIG. 10B, Sham vs OVX, same drug, K (10), (2R,6R)-HNK (0.025)) was 0.3764 and the “p, Freezing Average (min 1-5), Fisher's PLSD, OVX Sal vs OVX drug” value ([1]; Ovariectomized cohort, 1 week prophylactic drug, Contextual Fear Conditioning Re-exposure, FIG. 10C, OVX mice, K (10), (2R,6R)-HNK (0.025)) was 0.2290. For the same compound, the “* (significance), Freezing Average (min 1-5), Fisher's PLSD, Sham Sal vs Sham drug” value [1, 18] was “* (* p<0.05)”, the “p, Freezing Average (min 1-5), Fisher's PLSD, Sham Sal vs Sham drug” value [1, 18] was 0.0244 and the “p, Freezing Average (min 1-5), Fisher's PLSD, Sham drug vs OVX drug” value ([1]; Ovariectomized cohort, 1 week prophylactic drug, Contextual Fear Conditioning Re-exposure, FIG. 10C, Sham vs OVX, same drug, K (10), (2R,6R)-HNK (0.025)) was 0.3764. For the same compound, the “p, Freezing (min 1-5), Fisher's PLSD, E2/P4 Sal vs E2/P4 drug” value ([1]; Ovariectomized, E2/P4 replacement, 1 week prophylactic drug, Contextual Fear Conditioning Re-exposure, FIG. 10E, E2/P4 mice, K (10), (2R,6R)-HNK (0.025)) was 0.4219, the “p, Freezing (min 1-5), Fisher's PLSD, Vehicle Sal vs Vehicle drug” value ([1]; Ovariectomized, E2/P4 replacement, 1 week prophylactic drug, Contextual Fear Conditioning Re-exposure, FIG. 10E, Vehicle (hormone) mice, K (10), (2R,6R)-HNK (0.025)) was 0.9324 and the “p, Freezing (min 1-5), Fisher's PLSD, Vehicle drug vs E2/P4 drug” value ([1]; Ovariectomized, E2/P4 replacement, 1 week prophylactic drug, Contextual Fear Conditioning Re-exposure, FIG. 10E, Vehicle vs E2/P4, same drug, K (10), (2R,6R)-HNK (0.025)) was 0.5588. The “p, Freezing Average (min 1-5), Fisher's PLSD, E2/P4 Sal vs E2/P4 drug” value ([1]; Ovariectomized, E2/P4 replacement, 1 week prophylactic drug, Contextual Fear Conditioning Re-exposure, FIG. 10F, E2/P4 mice, K (10), (2R,6R)-HNK (0.025)) was 0.4219, the “p, Freezing Average (min 1-5), Fisher's PLSD, Vehicle Sal vs Vehicle drug” value ([1]; Ovariectomized, E2/P4 replacement, 1 week prophylactic drug, Contextual Fear Conditioning Re-exposure, FIG. 10F, Vehicle (hormone) mice, K (10), (2R,6R)-HNK (0.025)) was 0.9324 and the “p, Freezing Average (min 1-5), Fisher's PLSD, Vehicle drug vs E2/P4 drug” value ([1]; Ovariectomized, E2/P4 replacement, 1 week prophylactic drug, Contextual Fear Conditioning Re-exposure, FIG. 10F, Vehicle vs E2/P4, same drug, K (10), (2R,6R)-HNK (0.025)) was 0.5588. For the same compound, the “p, Freezing (min 1-5), Fisher's PLSD, E2/P4 Sal vs E2/P4 drug” value ([1]; Ovariectomized, E2/P4 replacement, 1 week prophylactic drug, Contextual Fear Conditioning Training, FIG. 10D, E2/P4 mice, K (10), (2R,6R)-HNK (0.025)) was 0.7901, the “p, Freezing (min 1-5), Fisher's PLSD, Vehicle Sal vs Vehicle drug” value ([1]; Ovariectomized, E2/P4 replacement, 1 week prophylactic drug, Contextual Fear Conditioning Training, FIG. 10D, Vehicle (hormone) mice, K (10), (2R,6R)-HNK (0.025)) was 0.6290 and the “* (significance), Freezing (min 1-5), Fisher's PLSD, Vehicle drug vs E2/P4 drug” value [1, 19] was “** (** p<0.01)”. The “p, Freezing (min 1-5), Fisher's PLSD, Vehicle drug vs E2/P4 drug” value [1, 19] was 0.0067, the “*, Freezing (min 1)” value [1, 20] was “* (* p<0.05)” and the “p, Freezing (min 1)” value [1, 20] was 0.0399. The “p, Freezing (min 5)” value ([1]; Sal vs. (2R,6R)-HNK (0.025), Fisher's PLSD, 3 day prophylactic drug/Contextual Fear Conditioning Training) was 0.9911, the “p, Freezing (min 1-5)” value [1, 21] was 0.2199 and the “p, Freezing (min 5)” value [1, 21] was 0.0731. The “p, Freezing Average (min 1-5)” value ([1]; Sal vs. (2R,6R)-HNK (0.025), t-test, 24 hour prophylactic drug/Contextual Fear Conditioning Re-exposure) was 0.2334, the “Freezing during CFC Training, E2/P4+drug vs vehicle+drug” value ([1]; ovariectomized mice, hormone replacement) was “froze significantly more; also recorded: exhibited increased freezing” and the “Freezing during CFC re-exposure vs saline” value ([1]; ovariectomized mice, vehicle condition) was “froze at comparable levels”. The “Freezing during re-exposure to the CFC training context vs saline” value ([1]; single i.p. injection 1 week before 3-shock CFC, all doses, female mice) was “do not significantly alter freezing; also recorded: did not alter overall freezing”, the “Attenuation of learned fear” value ([1]; single injection 1 week before stressor, female mice) was “do not alter learned fear; also recorded: do not attenuate learned fear” and the “P, Sal vs. drug, Fisher's PLSD: Time in Closed Arms Average (min 1-6), Elevated Plus Maze” value [2] was 0.3285. For the same compound, the “P, Sal vs. drug, Fisher's PLSD: Time in Open Arms Average (min 1-6), Elevated Plus Maze” value [2] was 0.9855 and the “Prophylactically effective dose in males” value [3] was 0.075 mg/kg.
